The text below walks through data of paper PMC8522729 (Antimicrobial Agents and Chemotherapy, 2021).

In brackets after ≈: the same amount, converted by molar mass. Like-named read-outs stand apart in the source and are kept apart here. Bounds are passed on as bounds.

The subject of data set [1] is M. tuberculosis H37Rv. Put plainly: MIC by broth microdilution (MABA), with and without 4% huSA (serum-shift assay). The following applies: MIC with 4% huSA vs without.
For the next data set, the system named is M. tuberculosis Erdman. The data set is described as above. The settings on record: for Serum shift (fold increase): M. tuberculosis Erdman, MIC with 4% huSA vs without; for protein binding by this assay (MIC shift): indicated by 8-fold MIC shift with 4% huSA.
The conditions of data set [2]: cited from earlier work.
The conditions of data set [3]: cited from earlier work. The source holds these as a separate data set.
Data set [4] relates to M. tuberculosis H37Rv. Also noted: method as in PMID 19299584. The settings on record: cited from earlier work.
Data set [5] is described as follows: Plasma, lung and lesion drug levels (LC-MS/MS and LCM-LC-MS/MS).
In data set [6] the test system is M. tuberculosis. The following applies: QD, cited from earlier work.
The test system of data set [7] is pulmonary pathology of M. tuberculosis-infected C3HeB/FeJ mice. Briefly: Pulmonary histopathology (pathologist scoring and LIRA). It is filed as in vivo. The settings on record: 100 mg/kg QD, 8 weeks.
For data set [8] the following is noted: C3HeB/FeJ, mouse, in vivo.
Data set [9] relates to M. tuberculosis. The following applies: chronic BALB/c mouse model, cited from earlier work.
In data set [10] the test system is M. tuberculosis Erdman-infected C3HeB/FeJ mice. Put plainly: Efficacy in the C3HeB/FeJ mouse tuberculosis model (CFU in lungs and spleens, kill rates). The settings on record: for LME (lowest dose with the maximum effect) in lungs / dose at which maximal efficacy in spleens was achieved: 8 weeks of treatment, OPC-167832 QD; for LME (lowest dose with the maximum effect) in lungs: TBA-7371 BID, PBTZ169 QD; for average lung CFU reduction compared to untreated controls: 5 of 7 days per week; for effect on lung CFU compared to pretreatment control and untreated controls / CFU reduction in spleen: 4 weeks of treatment, all doses; for effect on lung CFU compared to pretreatment control and untreated controls: P > 0.05; for CFU reduction in spleen: spleens; for dose at which maximal efficacy in spleens was achieved: TBA-7371 BID (not yet achieved). It is filed as in vivo.

Data set [11] relates to M. tuberculosis. The following applies: cited from earlier work.
In data set [12] the test system is nonreplicating bacteria in rabbit caseum. Briefly: Caseum MBC assay. Type of data set: cell-based, Mycobacterium tuberculosis. The settings on record: 7 days.
A further data set deals with M. tuberculosis Kurono. Also noted: method as in PMID 32229496. The following applies: chronic ICR mouse model, cited from earlier work.
For data set [13], the system named is M. tuberculosis. Also noted: method as in PMID 24957839, PMID 24215368, PMID 24874895. The settings on record: acute BALB/c mouse model; 100 mg/kg QD; cited from earlier work.
[14] abbreviates: lungs, 8 weeks, all three OPC-167832 groups, TBA-7371 medium and high dose, PBTZ169 medium and high dose, P < 0.05 Dunnett.
Setting [15] is: C3HeB/FeJ, mouse, in vivo, 5 mg/kg.

As to `O=[N+]([O-])c1cn2c(n1)OC[C@@H](OCc1ccc(OC(F)(F)F)cc1)C2` [Pretomanid, pretomanid], the “Serum shift (fold increase)” value in the data set with M. tuberculosis H37Rv [1] and with M. tuberculosis Erdman was 4 fold in each case.
With `C[C@H]1COC2(CCN(c3nc(=O)c4cc(C(F)(F)F)cc([N+](=O)[O-])c4s3)CC2)O1` [BTZ043], in [2], the plasma protein binding is above 99.8%. Moreover, in [3], the selectivity index was > 10,000. Further, the MIC in the data set with M. tuberculosis H37Rv [4] was 0.001 µg/mL (≈ 0.00232 µM).
In the case of `O=c1nc(N2CCN(CC3CCCCC3)CC2)sc2c([N+](=O)[O-])cc(C(F)(F)F)cc12` [PBTZ169, macozinone], the “Cmax in the cellular-caseum interface and caseum, fold lower than plasma or whole lung Cmax” value in [5] (50 mg/kg QD, 2.5 weeks) amounted to 10 fold. Moreover, the “concentration in plasma and lungs at T1 (Cmax)” value in data set [5] (50 mg/kg QD, 2.5 weeks, T1 15 min) is “around 1 μg/ml or μg/g”. In addition, the “MED99 (minimal effective dose giving 2-log reduction in lung bacterial load vs untreated)” value in the data set with M. tuberculosis [6] (published or reported mouse infection studies, no reference given) is 50 mg/kg. In addition, in data set [7], the “type III cellular lesions, lung involvement (LIRA)” value is recorded as “more than 35%” and the “type III lesion lung involvement relative to untreated control group (LIRA)” value is “more than 2 fold”. Besides, in data set [8] (15 min), the “plasma and lung concentration at T1, fold above the MIC+huSA” value is recorded as 11-20 fold. The selectivity index in data set [3] is reported as > 10,000. For the same molecule, in the data set with M. tuberculosis Erdman, the “Serum shift (fold increase)” value is reported as 8 fold and the “protein binding by this assay (MIC shift)” value is reported as around 88%. For the same molecule, the “CFU reduction in lungs versus untreated controls” value in the data set with M. tuberculosis [9] (after 4 weeks of treatment) is 1 log10 CFU. In addition, in the data set with M. tuberculosis [9], the “additional CFU reduction in lungs versus BTZ043” value is on record as 0.5 log10 CFU and the “additional CFU reduction in spleens versus BTZ043” value was 1 log10 CFU. In addition, in data set [10], the “LME (lowest dose with the maximum effect) in lungs” value (“LME” below) is 50 mg/kg and the “CFU reduction in spleen” value is “no statistically significant CFU reduction”. Further, the “average lung CFU reduction compared to untreated controls” value (“average lung CFU reduction” for short) in data set [10] (8 weeks, 50 and 100 mg/kg QD) amounted to 1.5 log10 CFU. In addition, the “effect on lung CFU compared to pretreatment control and untreated controls” value in data set [10] (lungs) is “not statistically significant”. Moreover, in data set [10] (setting [14]), the “lung bacterial load compared to the untreated control group” value is given as “statistical significant reduction in the lung bacterial load”. Moreover, in the data set on M. tuberculosis [11], the “MIC fold lower versus BTZ043” value is 3 fold.
Take `O=C1CCc2c(OC[C@]3(O)CCN(c4c(F)cc(Cl)cc4F)C[C@H]3O)ccc(F)c2N1` [OPC-167832]: the “drug level in caseous core / cellular-caseum interface at plasma Cmax, fold in excess of the MIC+huSA” value in data set [5] (5 mg/kg QD, 2.5 weeks) is on record as “approximately 21 fold”. In data set [5] (setting [15]), this molecule showed a Cmax at 1 h of 35 ng/g, a concentration at 1 h of 190 ng/g and a concentration at 24 h of 34 to 108 ng/g. In addition, the “MED99 (minimal effective dose giving 2-log reduction in lung bacterial load vs untreated)” value in the data set on M. tuberculosis [6] is 5 mg/kg. Further, the MBC in data set [12] (Mycobacterium tuberculosis, 168 h, rabbit caseum, read-out: caseum MBC90) amounted to 500 µg/mL (≈ 1090 µM). Further, the “reduction from treatment start in caseum” value in [12] (highest concentration tested (1 mg/ml), P = 0.0005) is reported as 1 log. The “CFU reduction in lungs versus the start of treatment” value with M. tuberculosis Kurono (5 mg/kg for 4 weeks) is reported as above 1.5 log10 CFU. Further, the “dose showing bactericidal activity” value in the data set with M. tuberculosis Kurono is on record as 0.625 mg/kg. For the same molecule, in data set [8] (1 h), the “concentration in caseum (acellular) at T1, fold above the MIC+huSA” value came out at 12 fold; the “concentration in caseum at T1, fold in excess of the MIC+huSA” value is listed as 20 fold; the “plasma and lung concentration at T1, fold above the MIC+huSA” value is given as 75-85 fold. In the data set with M. tuberculosis Erdman, the “Serum shift (fold increase)” value is 8 fold and the “protein binding by this assay (MIC shift)” value is around 88%. Also, in data set [10], the “dose at which maximal efficacy in spleens was achieved” value came to 5 mg/kg, the “LME” value was found to be 5 mg/kg and the “CFU reduction in spleen” value is listed as “dose-dependent CFU reduction”. The “average lung CFU reduction” value in data set [10] (8 weeks, 5 and 20 mg/kg QD) is given as 3 log10 CFU. Besides, the “efficacy in lungs versus the pretreatment control group” value in [10] (lungs, 4 weeks, 20 mg/kg QD, P = 0.04 Dunnett) was “statistically significant efficacy”. In data set [10] (lungs, 4 weeks, all three dose groups (1.25, 5, 20 mg/kg QD), P = 0.002 to 0.03 Dunnett), the “lung bacterial load compared to the untreated control group” value was “statistically significant reduction in lung bacterial load”. Besides, in data set [10] (setting [14]), the “lung bacterial load compared to the untreated control group” value was “statistical significant reduction in the lung bacterial load”.
`COc1ncnc(Cn2cc(C(=O)NCCO)c3ncc(C)cc32)c1C` [TBA-7371] showed a Cmax in data set [5] (C3HeB/FeJ, mouse, in vivo, 100 mg/kg) of around 8600 ng/g. For the same molecule, the “MED99 (minimal effective dose giving 2-log reduction in lung bacterial load vs untreated)” value in the data set with M. tuberculosis [6] is 100 mg/kg. Besides, in the data set on M. tuberculosis [13], the “CFU reduction in lungs compared to untreated controls” value is given as “more than 2 log10 CFU”. Further, in the data set with M. tuberculosis [9] (100 mg/kg QD), the “CFU reduction in lungs” value is reported as 1.5 log10 CFU. Further, in [10], the “dose at which maximal efficacy in spleens was achieved” value is recorded as at least 200 mg/kg, the “LME” value is listed as 100 mg/kg and the “CFU reduction in spleen” value is “dose-dependent CFU reduction”. Also, in data set [10] (8 weeks, 100 and 200 mg/kg BID), the “average lung CFU reduction” value was determined as 1.5 log10 CFU. Besides, the “effect on lung CFU compared to pretreatment control and untreated controls” value in [10] (lungs) is recorded as “not statistically significant”. Besides, the “lung bacterial load compared to the untreated control group” value in [10] (setting [14]) was “statistical significant reduction in the lung bacterial load”. For the same molecule, the minimal inhibitory concentration (MIC) with M. tuberculosis [11] was 0.64 µg/mL (≈ 1.8 µM).

As a reminder, the MIC is the lowest concentration that inhibits growth of the organism. One may read the Cmax as the peak of the concentration-time curve.
